In article PMC7719162, “Positioning of an unprecedented spiro[5.5]undeca ring system into kinase inhibitor space” (Scientific Reports, 2020):
Read-outs that look alike come from different tables or passages of the source.

Key:
JNK2 = target: T1, JNK2 (Homo sapiens, UniProt P45984); details: cited from earlier work
T1 construct: purchased Reaction Biology Corp

AMPK(A2/B1/G1) [1] = target: T2, AMPK(A2/B1/G1) (Homo sapiens, UniProt P54619+P54646+Q9Y478); assay: Kinase panel assay (radiolabelled); assay type: biochemical; details: 30 μM compound, ATP 10 μM; duplicates Data 1/Data 2; read-out: % Enzyme Activity (relative to DMSO controls)
T2 construct: purchased Reaction Biology Corp

AMPK(A2/B1/G1) [2] = target: T3, AMPK(A2/B1/G1) (Homo sapiens, UniProt P54646); assay: Kinase panel assay (radiolabelled); assay type: biochemical; details: 30 μM compound, ATP 10 μM; duplicates Data 1/Data 2
T3 construct: purchased Reaction Biology Corp

EIF2AK1 = target: T4, EIF2AK1 (Homo sapiens, UniProt Q9BQI3); assay: Kinase panel assay (radiolabelled); assay type: biochemical; details: 30 μM compound, ATP 10 μM, duplicates Data 1/Data 2
T4 construct: purchased Reaction Biology Corp
Method: (§1) Every inhibitory activity of tested compounds was measured by radiolabelled method of Reaction Biology Corp). The radiolabelled ATP ([γ-^33P] ATP) replaced a substrate with ^33P-phosphorylated substrate so that the activity of a kinase was measured from the radiolabelled phosphorylated substrate. Kinase panel assay was tested at 30 μM testing compounds with an ATP concentration of 10 μM and a substrate concentration of 10 μM. % Residual activity against GSK3β was measured at 10 uM compounds 1 and 2. […] Curve fits of control compounds were performed where the enzyme activities at the highest concentration of compounds were less than 65%. The concentration of DMSO was controlled and raw data, % kinase activity was calculated relative to DMSO controls.

PDK4/PDHK4 = target: T5, PDK4/PDHK4 (Homo sapiens, UniProt Q16654); assay: Kinase panel assay (radiolabelled); assay type: biochemical; details: 30 μM compound, ATP 10 μM, duplicates Data 1/Data 2
T5 construct: purchased Reaction Biology Corp
Method: as §1

Haspin = target: T6, Haspin (Homo sapiens, UniProt Q8TF76); assay: Kinase panel assay (radiolabelled); assay type: biochemical; details: ATP 10 μM
T6 construct: purchased Reaction Biology Corp
T6 sequence (Q8TF76 1-798): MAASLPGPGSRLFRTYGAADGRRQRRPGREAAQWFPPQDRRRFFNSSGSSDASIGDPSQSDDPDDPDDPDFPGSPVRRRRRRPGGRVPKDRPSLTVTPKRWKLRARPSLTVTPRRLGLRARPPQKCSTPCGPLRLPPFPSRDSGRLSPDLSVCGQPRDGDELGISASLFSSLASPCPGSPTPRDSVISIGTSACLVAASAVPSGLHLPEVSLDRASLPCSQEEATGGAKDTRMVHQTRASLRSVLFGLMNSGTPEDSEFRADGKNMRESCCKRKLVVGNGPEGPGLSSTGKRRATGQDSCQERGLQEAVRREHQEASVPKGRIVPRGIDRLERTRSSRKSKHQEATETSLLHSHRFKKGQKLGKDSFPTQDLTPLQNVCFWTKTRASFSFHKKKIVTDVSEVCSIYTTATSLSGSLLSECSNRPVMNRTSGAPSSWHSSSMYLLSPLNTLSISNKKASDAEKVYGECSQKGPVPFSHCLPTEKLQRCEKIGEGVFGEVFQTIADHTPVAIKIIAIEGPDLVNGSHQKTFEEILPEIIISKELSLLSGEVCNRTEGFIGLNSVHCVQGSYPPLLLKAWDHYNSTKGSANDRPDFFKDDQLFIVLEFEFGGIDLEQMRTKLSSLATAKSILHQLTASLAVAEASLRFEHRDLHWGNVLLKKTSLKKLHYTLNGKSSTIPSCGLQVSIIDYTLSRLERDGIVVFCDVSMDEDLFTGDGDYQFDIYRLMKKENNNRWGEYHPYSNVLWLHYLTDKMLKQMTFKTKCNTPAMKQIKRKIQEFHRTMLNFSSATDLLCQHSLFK

SPHK1 = target: T7, SPHK1 (Homo sapiens, UniProt Q9NYA1); assay: Kinase panel assay (lipid kinase); assay type: biochemical; details: 30 μM compound, ATP 10 μM, duplicates Data 1/Data 2
T7 construct: purchased Reaction Biology Corp

COX-2 = assay: Western blot of COX-2 in LPS-induced BV-2 cells; assay type: cell-based, murine; details: 0.01 to 1 uM
Method: Western blot analysis was performed to see the protein expression of the iNOS and COX-2 in the BV2 cells. BV2 cells were seeded in a 6 well plate at the density of 6 × 10^5 cells/well overnight and cells were treated as mentioned earlier in the cell treatment section and this time treatment was performed for 6 h only. After 6 h, cells were harvested and lysed with lysis buffer containing (RIPA, protease inhibitor & phosphatase inhibitor), protein estimation was performed using biorad assay and the 30 µg of total protein was separated by 8% SDS-PAGE gel electrophoresis, transferred to nitrocellulose membranes, and incubated with primary antibodies against tubulin, iNOS, COX-2, and α-tubulin. […] membranes were incubated with horseradish peroxidase-conjugated secondary antibodies, and protein bands were visualized using ECL Western Blotting Detection Reagents (Amersham Pharmacia Biotech). Quantitative analysis of the protein bands was quantified using Image Master 2D Elite software (version 3.1, Amersham Pharmacia Biotech).

PGE2 = assay: Secreted PGE2 immunoassay in LPS-induced BV-2 cells; assay type: cell-based, murine
Method: To evaluate the secreted level of Prostaglandin E2 (PGE2), Tumor necrosis factor (TNF-α), Interleukin (IL-6), Interleukin (IL-1β), BV2 cells were seeded in a 6 well plate at the density of 1.5 × 10^6 cells/well in DMEM and incubated for 24 h. Seeded cells sere pretreated and, activated with LPS for next 24 h. conditioned medium from treated cells were collected and stored at -80 degree for longer period of time. The amount of TNF-α, IL-1β, PGE2,and IL-6 were evaluated using the competitive enzyme immunoassay kit. PGE2 kit were obtained from (Cayman Chemical, Ann Arbor, MI, USA) and TNF-α, IL-1β, and IL-6 were measured using ELISA development kits (R&D Systems, Minneapolis, MN, USA). All the protocol was exactly followed as written in the manual.

[3] = read-out: % Enzyme Activity (relative to DMSO controls)

T7 sequence (Q9NYA1 whole entry): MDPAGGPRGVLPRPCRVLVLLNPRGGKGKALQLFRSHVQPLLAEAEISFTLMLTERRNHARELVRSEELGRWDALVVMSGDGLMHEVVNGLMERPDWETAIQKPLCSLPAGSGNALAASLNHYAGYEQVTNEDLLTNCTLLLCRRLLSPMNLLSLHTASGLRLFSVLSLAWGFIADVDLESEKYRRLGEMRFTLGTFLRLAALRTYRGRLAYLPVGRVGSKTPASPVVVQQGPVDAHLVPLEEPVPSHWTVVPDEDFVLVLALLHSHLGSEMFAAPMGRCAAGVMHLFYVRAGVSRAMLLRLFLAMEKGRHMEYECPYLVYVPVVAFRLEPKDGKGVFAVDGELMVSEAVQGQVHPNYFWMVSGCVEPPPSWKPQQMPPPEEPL
T5 sequence (Q16654 whole entry): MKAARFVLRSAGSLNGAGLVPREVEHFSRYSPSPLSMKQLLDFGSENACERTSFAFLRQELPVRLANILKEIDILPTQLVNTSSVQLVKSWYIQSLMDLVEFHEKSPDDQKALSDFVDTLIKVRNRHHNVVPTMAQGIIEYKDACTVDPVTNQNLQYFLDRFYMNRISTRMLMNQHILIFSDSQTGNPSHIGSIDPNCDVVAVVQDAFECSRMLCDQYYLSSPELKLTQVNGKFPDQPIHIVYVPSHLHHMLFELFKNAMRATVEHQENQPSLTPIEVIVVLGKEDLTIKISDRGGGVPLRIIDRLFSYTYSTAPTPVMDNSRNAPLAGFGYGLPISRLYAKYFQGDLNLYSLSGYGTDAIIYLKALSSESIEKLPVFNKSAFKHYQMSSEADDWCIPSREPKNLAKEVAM
T4 sequence (Q9BQI3 whole entry): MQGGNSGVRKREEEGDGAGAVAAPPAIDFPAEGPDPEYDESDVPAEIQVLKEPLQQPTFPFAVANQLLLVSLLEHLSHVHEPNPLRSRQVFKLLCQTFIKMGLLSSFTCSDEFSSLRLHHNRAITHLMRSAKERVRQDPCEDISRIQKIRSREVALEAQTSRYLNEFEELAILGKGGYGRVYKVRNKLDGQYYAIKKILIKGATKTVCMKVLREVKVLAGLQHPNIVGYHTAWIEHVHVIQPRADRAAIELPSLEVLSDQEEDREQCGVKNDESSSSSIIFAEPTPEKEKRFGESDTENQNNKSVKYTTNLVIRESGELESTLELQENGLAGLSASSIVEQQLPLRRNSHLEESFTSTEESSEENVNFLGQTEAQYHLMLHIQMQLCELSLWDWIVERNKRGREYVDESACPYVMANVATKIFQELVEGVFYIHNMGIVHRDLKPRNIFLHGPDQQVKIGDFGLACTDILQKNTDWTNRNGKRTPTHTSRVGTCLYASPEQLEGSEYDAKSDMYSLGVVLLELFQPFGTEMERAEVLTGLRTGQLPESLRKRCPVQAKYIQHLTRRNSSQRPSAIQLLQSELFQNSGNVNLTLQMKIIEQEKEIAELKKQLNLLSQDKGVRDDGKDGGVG
T1 sequence (P45984 whole entry): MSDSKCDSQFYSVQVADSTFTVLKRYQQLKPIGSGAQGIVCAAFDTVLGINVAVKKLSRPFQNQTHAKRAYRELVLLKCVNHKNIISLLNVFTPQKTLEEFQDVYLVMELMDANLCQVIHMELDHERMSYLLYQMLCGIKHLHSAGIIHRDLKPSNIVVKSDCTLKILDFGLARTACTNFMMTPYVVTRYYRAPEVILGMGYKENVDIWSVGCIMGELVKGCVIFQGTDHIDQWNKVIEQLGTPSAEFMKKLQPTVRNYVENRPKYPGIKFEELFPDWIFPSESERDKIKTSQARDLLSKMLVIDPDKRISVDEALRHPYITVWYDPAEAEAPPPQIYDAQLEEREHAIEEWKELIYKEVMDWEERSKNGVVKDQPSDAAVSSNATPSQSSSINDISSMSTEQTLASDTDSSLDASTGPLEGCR
T2 sequence (P54646 whole entry): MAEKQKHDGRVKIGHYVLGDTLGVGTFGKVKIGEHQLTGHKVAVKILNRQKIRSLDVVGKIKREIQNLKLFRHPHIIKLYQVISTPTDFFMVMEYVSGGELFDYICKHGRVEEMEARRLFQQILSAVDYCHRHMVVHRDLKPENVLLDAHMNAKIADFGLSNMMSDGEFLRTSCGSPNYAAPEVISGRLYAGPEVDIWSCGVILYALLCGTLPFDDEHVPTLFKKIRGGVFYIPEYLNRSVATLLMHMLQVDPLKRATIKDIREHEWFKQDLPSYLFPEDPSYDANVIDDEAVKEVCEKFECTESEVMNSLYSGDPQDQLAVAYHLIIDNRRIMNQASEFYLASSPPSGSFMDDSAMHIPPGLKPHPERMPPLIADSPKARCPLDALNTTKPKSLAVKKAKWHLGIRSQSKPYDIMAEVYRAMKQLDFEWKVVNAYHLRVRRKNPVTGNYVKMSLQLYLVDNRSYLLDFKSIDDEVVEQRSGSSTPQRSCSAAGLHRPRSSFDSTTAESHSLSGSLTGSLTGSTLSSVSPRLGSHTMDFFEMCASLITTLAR
T2 sequence (Q9Y478 whole entry partner): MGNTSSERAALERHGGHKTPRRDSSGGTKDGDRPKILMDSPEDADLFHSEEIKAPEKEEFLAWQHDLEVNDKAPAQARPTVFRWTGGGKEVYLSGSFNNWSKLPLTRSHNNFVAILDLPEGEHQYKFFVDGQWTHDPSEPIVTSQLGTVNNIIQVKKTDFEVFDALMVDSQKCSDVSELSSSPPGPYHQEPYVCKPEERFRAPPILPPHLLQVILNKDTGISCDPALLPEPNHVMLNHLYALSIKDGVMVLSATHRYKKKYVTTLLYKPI
T2 sequence (P54619 whole entry partner): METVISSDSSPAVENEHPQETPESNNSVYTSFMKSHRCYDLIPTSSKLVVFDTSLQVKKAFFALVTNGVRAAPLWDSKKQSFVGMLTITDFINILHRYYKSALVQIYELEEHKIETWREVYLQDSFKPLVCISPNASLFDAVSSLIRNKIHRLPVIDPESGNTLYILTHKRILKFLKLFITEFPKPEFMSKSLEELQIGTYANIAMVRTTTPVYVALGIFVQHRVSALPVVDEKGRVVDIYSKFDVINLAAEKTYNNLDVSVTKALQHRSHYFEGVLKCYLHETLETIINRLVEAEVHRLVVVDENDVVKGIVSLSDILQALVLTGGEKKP
T3 sequence (P54646 whole entry): as the sequence (P54646 whole entry) above
T3 sequence (Q9Y478 whole entry partner): as the sequence (Q9Y478 whole entry partner) above
T3 sequence (P54619 whole entry partner): as the sequence (P54619 whole entry partner) above

Row | SMILES | % Residual Activity at 30 μM (JNK2) [%] | remaining activity at 30 µM (AMPK(A2/B1/G1) [1]) [%] | % Enzyme Activity (relative to DMSO controls) (AMPK(A2/B1/G1) [2]) [%] | % Enzyme Activity (relative to DMSO controls) (EIF2AK1) [%] | remaining activity at 30 µM (EIF2AK1; [3]) [%] | % Enzyme Activity (relative to DMSO controls) (PDK4/PDHK4) [%] | remaining activity at 30 µM (PDK4/PDHK4; [3]) [%] | % Enzyme Activity (relative to DMSO controls) (Haspin; 30 μM compound, duplicates Data 1/Data 2) [%] | remaining activity at 30 µM (Haspin; 30 μM compound, duplicates Data 1/Data 2, read-out: % Enzyme Activity (relative to DMSO controls)) [%] | remaining activity at 30 µM (Haspin; 30 μM, average ± SD, read-out: % Residual Activity at 30 μM) [%] | % Enzyme Activity (relative to DMSO controls) (SPHK1) [%] | remaining activity at 30 µM (SPHK1; [3]) [%] | COX-2 expression level (COX-2) | secreted level of PGE2 (PGE2)
1 | O=C1C=CC2(C=C1)OCC(Cc1cc(C(F)(F)F)cc(C(F)(F)F)c1)C(=O)N2c1ccccc1 (racemic) [1c] | 58.3 ± 0.7 |  |  |  |  |  |  |  |  |  |  |  |  | 
2 | O=C1C=CC2(C=C1)OCC(Cc1cn(-c3cccc(Cl)c3)nn1)C(=O)N2c1ccccc1 (centres unmarked) [2d, 3-((1-(3-Chlorophenyl)-1H-1,2,3-triazol-4-yl)methyl)-5-phenyl-1-oxa-5-azaspiro[5.5]undeca-7,10-diene-4,9-dione] |  | 50.8 | 47.50 | 87.95 | 91.7 | 105.05 | 111 | 70.31 | 71.6 | 70.9 ± 0.9 | 77.68 | 80.5 | the regulation of COX-2 showed concentration dependency | concentration-dependent manner
